Test results from patent US20030114382A1, “Glycogen synthase kinase function in endothelial cells” (priority 2001, published 2003).

What was measured:
[1] = tested on: Akt phosphorylation; assay: Immunoblot of Akt phosphorylation in HUVECs; type: cell-based, human; details: for Akt phosphorylation: HUVECs, single agent; for level of Akt phosphorylation: combined administration of PD98059 and SB203480, presence or absence of PI3K inhibition
Description: To examine the regulation of GSK3β phosphorylation, HUVECs were serum-starved for 15 hours, treated with the indicated agents for 1 hour, and stimulated with 10% fetal bovine serum.
Immunoblot analysis. HUVECs were washed in phosphate-buffered saline and harvested by scraping in 50 mM Tris-HCl (pH 7.2), 250 mM NaCl, 1% NP40, 0.05% SDS, 2 mM EDTA, 0.5% deoxycholic acid, 10 mM 13-glycerophosphate, 1 mM vanadate, 1 mM phenyl methyl sulfonyl fluoride (PMSF). One mini tablet of protease inhibitor cocktail (Roche, Summerville, N.J.) per 10 ml of lysis buffer, vanadate, and PMSF were added just prior to use. Protein concentration was determined with protein assay kit (Pierce, Rockford, Ill.). Protein (20 μg) was separated on SDS-polyacrylamide electrophoresis gel and transferred to a polyvinylidene difluoride membrane (Millipore, Bedford, Mass.). The membrane was blocked with T-PBS (1×PBS, 0.3% Tween-20) containing 3% dry milk and incubated with primary antibody overnight at 4° C. After three washes with T-PBS, the membrane was reblocked and incubated with secondary antibody for 1 hour at room temperature. ECL or ECL-PLUS (Amersham, Piscataway, N.J.) was used for detection. To reprobe the membrane, it was treated with Restore Western Blot stripping buffer (Pierce, Rockford, Ill.). The primary antibodies used were anti-phospho GSK-3β (Ser9) antibody (1:750 dilution, Cell Signaling Technology, Beverly, Mass.), anti-phospho Akt (Ser473) antibody (1:250 dilution, Cell Signaling Technology, Beverly, Mass.), anti-total GSK-3β antibody (1:1000 dilution, Santa Cruz, Santa Cruz, Calif.), and anti-a tubulin antibody (1:4000 dilution, Oncogene, Boston, Mass.). The secondary antibodies were anti-rabbit IgG/HRP conjugate or anti-mouse IgG/HRP conjugate (1:2500 dilution, Promega, San Luis Obispo, Calif.).

[2] = tested on: GSK3β phosphorylation at serine 9; assay: Immunoblot of GSK3β phosphorylation at serine 9 in HUVECs; type: cell-based, human; details: for serum-induced phosphorylation of GSK3β: serum-starved HUVECs, 1 hour pretreatment with agent, 10% FBS 1 hour
Description: Cell culture and adenoviral vectors. Human umbilical vein ECs (HUVECs) were isolated as previously described (29) and cultured in EGM media (Clonetics, Walkersville, Md.). Four to six passage cells were used in this study. To examine the regulation of GSK3β phosphorylation, HUVECs were serum-starved for 15 hours, treated with the indicated agents for 1 hour, and stimulated with 10% fetal bovine serum.
Immunoblot analysis. HUVECs were washed in phosphate-buffered saline and harvested by scraping in 50 mM Tris-HCl (pH 7.2), 250 mM NaCl, 1% NP40, 0.05% SDS, 2 mM EDTA, 0.5% deoxycholic acid, 10 mM 13-glycerophosphate, 1 mM vanadate, 1 mM phenyl methyl sulfonyl fluoride (PMSF). One mini tablet of protease inhibitor cocktail (Roche, Summerville, N.J.) per 10 ml of lysis buffer, vanadate, and PMSF were added just prior to use. Protein concentration was determined with protein assay kit (Pierce, Rockford, Ill.). Protein (20 μg) was separated on SDS-polyacrylamide electrophoresis gel and transferred to a polyvinylidene difluoride membrane (Millipore, Bedford, Mass.). The membrane was blocked with T-PBS (1×PBS, 0.3% Tween-20) containing 3% dry milk and incubated with primary antibody overnight at 4° C. After three washes with T-PBS, the membrane was reblocked and incubated with secondary antibody for 1 hour at room temperature. ECL or ECL-PLUS (Amersham, Piscataway, N.J.) was used for detection. To reprobe the membrane, it was treated with Restore Western Blot stripping buffer (Pierce, Rockford, Ill.). The primary antibodies used were anti-phospho GSK-3β (Ser9) antibody (1:750 dilution, Cell Signaling Technology, Beverly, Mass.), anti-phospho Akt (Ser473) antibody (1:250 dilution, Cell Signaling Technology, Beverly, Mass.), anti-total GSK-3β antibody (1:1000 dilution, Santa Cruz, Santa Cruz, Calif.), and anti-a tubulin antibody (1:4000 dilution, Oncogene, Boston, Mass.).

Structure (SMILES) | Akt phosphorylation [1] | induction of GSK3β phosphorylation by 8-bromo cAMP or forskolin ([2]; pretreatment with H89, serum-deprived HUVECs) | serum-induced phosphorylation of GSK3β [2] | level of Akt phosphorylation [1]
O=S(=O)(NCCNC/C=C/c1ccc(Br)cc1)c1cccc2cnccc12 [H89] | promoted | blocked | inhibited | –
COc1cccc(-c2cc(=O)c3ccccc3o2)c1N [PD98059] | not | – | partially inhibited | detectably elevated
C[S+]([O-])c1ccc(-c2nc(-c3ccncc3)c(-c3ccc(F)cc3)[nH]2)cc1 (stereo not drawn) [SB203480] | not | – | partially inhibited | detectably elevated
